Patent publication US20250353891A1 (MEDIMMUNE LIMITED, priority 2022, published 2025)
Starred links: 1 amine or outer side, 2 acyl side, 3 side chain; linkers in the order of their positions; H or OH if unused. Non-standard residues stand in square brackets, D forms with d. Residues, ends and D or L forms follow the SMILES beside them. Groups on a side chain read outwards from the residue. *: point of attachment. γGlu = O=C(O)[C@H](CCC(=O)[*:2])N[*:1]; Stearoyl = CCCCCCCCCCCCCCCCCC(=O)*; Palmitoyl = CCCCCCCCCCCCCCCC(=O)*; αMeF = C[C@](N)(Cc1ccccc1)C(=O)O; PEG4 = NCCOCCOCCOCCOCCC(=O)O; PEG2 = NCCOCCOCCC(=O)O; Aib = CC(C)(N)C(=O)O

How the values were obtained:
[1] = Mouse acute food intake study; type: in vivo; conditions: male C57Bl/6 mice, s.c., dose 10 nmol/kg, cumulative food intake at 24 hr vs vehicle
Protocol: Male C57Bl/6 mice obtained from Jackson Laboratories or Charles River at 8-9 weeks of age and were housed one per cage in BioDaq (Research Diets) cages. Mice were placed on Alpha Dri bedding, standard chow diet (Envigo, 2018) and given water pouches. Mice were allowed to acclimate for 1-2 weeks. Body weight was measured to ensure appropriate acclimation. After acclimation, mice were sham dosed a minimum of 2 times prior to initiation of food intake study. On study day, mice were placed in clean cage bottoms, weighed, and fasted for 6-8 hours. Mice were sorted into groups based on average 24-hour food intake data and body weight. 1-2 hours prior to lights out, mice were dosed subcutaneously with one vehicle or test peptide dissolved in an appropriate vehicle at 5 mL/kg. Mice were left undisturbed and allowed access to food and water for 48 hours. Automated food intake was monitored in the BioDaq system was monitored during this time. Discrete food intake data was exported into MS Excel from which cumulative food intake data was generated and analyzed.

[2] = molecular target: human GLP-1 receptor (hGLP-1R) (Homo sapiens, UniProt P43220); experiment: cAMP production (HTRF) in CHO cells expressing hGLP-1R; type: cell-based; parameters: expressed in transfected cells; conditions: for % Relative Potency Ratio: Table 6, % GLP-1R activity relative to GLP-1 / % GlucR activity relative to glucagon
Sequence of human GLP-1 receptor (hGLP-1R) (P43220 24-463): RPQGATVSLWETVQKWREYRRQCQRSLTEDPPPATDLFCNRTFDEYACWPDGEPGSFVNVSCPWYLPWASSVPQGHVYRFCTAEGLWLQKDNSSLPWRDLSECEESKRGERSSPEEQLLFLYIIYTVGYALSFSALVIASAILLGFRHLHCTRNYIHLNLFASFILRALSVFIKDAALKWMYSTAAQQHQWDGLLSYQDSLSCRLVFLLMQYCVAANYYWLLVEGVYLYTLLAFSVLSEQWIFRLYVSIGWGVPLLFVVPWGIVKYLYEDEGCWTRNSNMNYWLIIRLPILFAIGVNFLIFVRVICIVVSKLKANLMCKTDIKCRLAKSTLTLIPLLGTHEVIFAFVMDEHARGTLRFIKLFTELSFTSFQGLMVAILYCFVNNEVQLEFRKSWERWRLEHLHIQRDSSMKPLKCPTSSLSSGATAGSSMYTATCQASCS
How it was run: (§1)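 Cells were resuspended in assay buffer at batch-optimized density, typically 1×10^5 cells/mL for hGLP-1R and 2×10^5 cells/mL for hGCGR. After 30 min incubation at room temperature with compound, cAMP was measured by two-step HTRF. EC50 values came from 4-parameter logistic fits of % Delta F.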

[3] = molecular target: human glucagon receptor (hGCGR) (Homo sapiens, UniProt P47871); experiment: cAMP production (HTRF) in CHO cells expressing hGCGR; type: cell-based; parameters: expressed in transfected cells; conditions: Table 6, peptides modified at position 17; cAMP in CHO hGCGR cells; geometric mean; read-out: hGluc-R EC50
Sequence of human glucagon receptor (hGCGR) (P47871 26-477): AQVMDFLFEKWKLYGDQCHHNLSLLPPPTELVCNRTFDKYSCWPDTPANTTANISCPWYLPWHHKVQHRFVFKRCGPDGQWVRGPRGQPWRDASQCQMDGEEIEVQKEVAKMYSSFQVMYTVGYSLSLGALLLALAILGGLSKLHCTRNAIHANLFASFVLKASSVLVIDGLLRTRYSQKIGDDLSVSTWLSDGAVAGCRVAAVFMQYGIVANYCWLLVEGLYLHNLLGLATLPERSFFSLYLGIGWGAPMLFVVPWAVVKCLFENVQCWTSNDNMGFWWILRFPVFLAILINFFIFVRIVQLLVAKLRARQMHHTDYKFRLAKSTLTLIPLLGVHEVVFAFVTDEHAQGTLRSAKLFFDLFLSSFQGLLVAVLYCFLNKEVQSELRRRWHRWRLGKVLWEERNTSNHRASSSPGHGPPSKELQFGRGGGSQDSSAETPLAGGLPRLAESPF
How it was run: as §1

EC50 ([2]; Table 6, peptides modified at position 17, cAMP in CHO hGLP-1R cells, geometric mean, read-out: hGLP-1R EC50) [pM]	% Relative Potency Ratio [2]	EC50 [3] [nM]	Structure (SMILES)	24 hr % Vehicle Food Intake [1] [%]
2.17	48.9	0.0537	CCCCCCCCCCCCCCCCCC(=O)N[C@@H](CCC(=O)N[C@@H](CCC(=O)NCCOCCOCCOCCOCCC(=O)NCCCC[C@H](NC(=O)[C@H](CO)NC(=O)[C@H](CC(=O)O)NC(=O)[C@H](CC(C)C)NC(=O)[C@](C)(Cc1ccccc1)NC(=O)[C@H](CCCCN)NC(=O)[C@H](CO)NC(=O)[C@@H](NC(=O)[C@H](CC(=O)O)NC(=O)[C@H](CO)NC(=O)[C@@H](NC(=O)[C@](C)(Cc1ccccc1)NC(=O)[C@H](CO)NC(=O)CNC(=O)[C@H](CCC(N)=O)NC(=O)C(C)(C)NC(=O)[C@@H](N)Cc1c[nH]cn1)[C@@H](C)O)C(C)C)C(=O)N[C@@H](C)C(=O)N[C@@H](C)C(=O)N[C@@H](CCC(N)=O)C(=O)N[C@@H](CC(=O)O)C(=O)N[C@@](C)(Cc1ccccc1)C(=O)N[C@H](C(=O)N[C@@H](CCC(=O)O)C(=O)NC(C)(C)C(=O)N[C@@H](CC(C)C)C(=O)N[C@@H](CCC(=O)O)C(=O)N[C@@H](C)C(=O)NCC(=O)NCC(N)=O)C(C)C)C(=O)O)C(=O)O [Peptide 71] (H-H[Aib]QGS[αMeF]TSDVSK[αMeF]LDSK([PEG4-γGlu-γGlu-Stearoyl])AAQD[αMeF]VE[Aib]LEAGG-NH2)	80.6
–	157.9	0.022	CCCCCCCCCCCCCCCC(=O)N[C@@H](CCC(=O)N[C@@H](CCC(=O)NCCOCCOCCC(=O)NCCOCCOCCC(=O)NCCCC[C@H](NC(=O)[C@H](CO)NC(=O)[C@H](CC(=O)O)NC(=O)[C@H](CC(C)C)NC(=O)[C@](C)(Cc1ccccc1)NC(=O)[C@H](CCCCN)NC(=O)[C@H](CO)NC(=O)[C@@H](NC(=O)[C@H](CC(=O)O)NC(=O)[C@H](CO)NC(=O)[C@@H](NC(=O)[C@](C)(Cc1ccccc1)NC(=O)[C@H](CO)NC(=O)CNC(=O)[C@H](CCC(N)=O)NC(=O)C(C)(C)NC(=O)[C@@H](N)Cc1c[nH]cn1)[C@@H](C)O)C(C)C)C(=O)N[C@@H](C)C(=O)N[C@@H](C)C(=O)N[C@@H](CCC(N)=O)C(=O)N[C@@H](CC(=O)O)C(=O)N[C@@](C)(Cc1ccccc1)C(=O)N[C@H](C(=O)N[C@@H](CCC(N)=O)C(=O)NC(C)(C)C(=O)N[C@H](C(=O)N[C@@H](C)C(=O)N[C@@H](CC(N)=O)C(N)=O)[C@@H](C)CC)C(C)C)C(=O)O)C(=O)O [Peptide 73] (H-H[Aib]QGS[αMeF]TSDVSK[αMeF]LDSK([PEG2-PEG2-γGlu-γGlu-Palmitoyl])AAQD[αMeF]VQ[Aib]IAN-NH2; N-terminus assumed)	63.4
–	69.9	0.0301	CCCCCCCCCCCCCCCCCC(=O)N[C@@H](CCC(=O)N[C@@H](CCC(=O)NCCOCCOCCC(=O)NCCOCCOCCC(=O)NCCCC[C@H](NC(=O)[C@H](CO)NC(=O)[C@H](CC(=O)O)NC(=O)[C@H](CC(C)C)NC(=O)C(C)(C)NC(=O)[C@H](CCCCN)NC(=O)[C@H](CO)NC(=O)[C@@H](NC(=O)[C@H](CC(=O)O)NC(=O)[C@H](CO)NC(=O)[C@@H](NC(=O)[C@](C)(Cc1ccccc1)NC(=O)[C@H](CO)NC(=O)CNC(=O)[C@H](CCC(N)=O)NC(=O)[C@H](CO)NC(=O)[C@@H](N)Cc1c[nH]cn1)[C@@H](C)O)C(C)C)C(=O)N[C@@H](C)C(=O)N[C@@H](C)C(=O)N[C@@H](CCC(N)=O)C(=O)N[C@@H](CC(=O)O)C(=O)N[C@@](C)(Cc1ccccc1)C(=O)N[C@H](C(=O)N[C@@H](CCC(N)=O)C(=O)NC(C)(C)C(=O)N[C@@H](CC(C)C)C(=O)N[C@@H](CCC(=O)O)C(=O)N[C@@H](C)C(=O)NCC(=O)NCC(N)=O)C(C)C)C(=O)O)C(=O)O [Peptide 96] (H-HSQGS[αMeF]TSDVSK[Aib]LDSK([PEG2-PEG2-γGlu-γGlu-Stearoyl])AAQD[αMeF]VQ[Aib]LEAGG-NH2; N-terminus assumed)	51.9
